MIC data for four compounds are collected here from DBAASP.

Assay in all cases: ≥ marks a high value that may be exact or a test limit, other limits are often not marked, values filed in µg/mL are converted to µM
Assay [1] deals with Candida albicans NCYC 1467.
The test system of assay [2] is Enterococcus faecalis NCTC 12697.
Assay [3] has as its system Escherichia coli NCTC 10418.
Assay [4] concerns Klebsiella pneumoniae ATCC 43816.
Assay [5] deals with Pseudomonas aeruginosa ATCC 27853.
For assay [6], the system named is Staphylococcus aureus NCTC 10788.
The test system of assay [7] is Staphylococcus aureus NCTC 12493.
Assay [8] relates to Bacillus subtilis ATCC 23857.
For assay [9], the system named is Candida albicans ATCC 10231.
Assay [10] has as its system Escherichia coli ATCC 25922.
The subject of assay [11] is Klebsiella aerogenes ATCC 13048.
For assay [12], the system named is Pseudomonas aeruginosa ATCC 9027.
Assay [13] relates to Staphylococcus aureus ATCC 29737.
For assay [14], the system named is Acinetobacter baumannii ATCC 19606.
Assay [15] has as its system Candida albicans ATCC 90028.
Assay [16] relates to Cryptococcus neoformans ATCC 208821.
Assay [17] relates to Klebsiella pneumoniae ATCC 700603.
Assay [18] concerns Staphylococcus aureus ATCC 43300.

Values after ≈ are worked out from the molar mass of the structure shown.

Usually MIC stands for the lowest concentration found to suppress growth. Lower therefore signals greater potency. For the compound `CC[C@H](C)[C@H](NC(=O)[C@H](C)NC(=O)[C@H](CO)NC(=O)[C@@H](NC(=O)[C@@H](NC(=O)[C@H](CCCCN)NC(=O)[C@@H]1CCCN1C(=O)[C@@H](NC(=O)[C@H](CC(C)C)NC(=O)[C@H](CO)NC(=O)[C@H](CC(C)C)NC(=O)[C@@H](N)Cc1ccccc1)[C@@H](C)CC)[C@@H](C)CC)[C@@H](C)CC)C(=O)N[C@@H](CO)C(=O)N[C@@H](C)C(=O)N[C@@H](CC(C)C)C(=O)N[C@H](C(=O)N[C@@H](CC(N)=O)C(=O)N[C@@H](Cc1cnc[nH]1)C(=O)N[C@@H](Cc1ccccc1)C(N)=O)[C@@H](C)CC` [FLSLIPKIISAISALINHF], the MIC in assay [1] was ≥ 32 µM; in [2], ≥ 32 µM; in assay [3], ≥ 512 µM; in assay [4] it was ≥ 512 µM; in assay [5] it was > 512 µM; in assay [6] it was 2 µM (≈ 4.19 µg/mL). In assay [7], the MIC is ≥ 128 µM.

As for `CC(C)C[C@H](NC(=O)[C@H](CCC(N)=O)NC(=O)[C@H](CCC(N)=O)NC(=O)[C@H](C)NC(=O)CNC(=O)[C@H](C)NC(=O)[C@H](CCCCN)NC(=O)CNC(=O)[C@@H](NC(=O)[C@H](CCC(N)=O)NC(=O)[C@H](CCCCN)NC(=O)[C@H](CCCN=C(N)N)NC(=O)[C@H](CC(C)C)NC(=O)[C@H](Cc1ccc(O)cc1)NC(=O)[C@H](CCCCN)NC(=O)[C@H](C)NC(=O)CNC(=O)[C@H](C)NC(=O)[C@H](CCCCN)NC(=O)[C@H](Cc1ccccc1)NC(=O)[C@H](CC(C)C)NC(=O)[C@H](CO)NC(=O)[C@H](CO)NC(=O)[C@H](Cc1ccccc1)NC(=O)CN)C(C)C)C(N)=O` [GFSSLFKAGAKYLRKQVGKAGAQQL], the MIC was ≥ 64 µM in assay [1]; 16 µM (≈ 42.5 µg/mL) in assay [2]; 8 µM (≈ 21.2 µg/mL) in [3]; ≥ 128 µM in assay [4]; 16 µM (≈ 42.5 µg/mL) in assay [5]; 16 µM (≈ 42.5 µg/mL) in assay [6]. Further, the MIC in assay [7] was ≥ 64 µM.

As for `CC(C)C[C@H](NC(=O)[C@H](CC(C)C)NC(=O)[C@H](CCCCN)NC(=O)[C@H](CCCCN)NC(=O)[C@H](CC(C)C)NC(=O)[C@H](CC(C)C)NC(=O)[C@H](CCCCN)NC(=O)[C@H](CCCCN)NC(=O)[C@H](CC(C)C)NC(=O)[C@H](CC(C)C)NC(=O)[C@H](CCCCN)NC(=O)[C@H](CCCCN)NC(=O)[C@H](CC(C)C)NC(=O)[C@@H](N)CC(C)C)C(=O)N[C@@H](CCCCN)C(=O)N[C@@H](CCCCN)C(N)=O` [LLKKLLKKLLKKLLKK], the MIC in assay [8] is 4.07 µM (≈ 7.93 µg/mL); in assay [9], > 25.7 µM; in [10] it was 6.41 µM (≈ 12.5 µg/mL); in [11], 12.8 µM (≈ 25 µg/mL); in assay [12], 3.23 µM (≈ 6.3 µg/mL); in [13], 25.7 µM (≈ 50 µg/mL).

As for `NC(=O)C[C@H](N)C(=O)N[C@@H](Cc1cnc[nH]1)C(=O)N[C@@H](Cc1cnc[nH]1)C(=O)N[C@@H](CCCN=C(N)N)C(=O)N[C@@H](CCCN=C(N)N)C(=O)N[C@@H](Cc1cnc[nH]1)C(=O)N[C@@H](Cc1cnc[nH]1)C(=O)N[C@@H](CCCN=C(N)N)C(=O)N[C@@H](CS)C(=O)N[C@@H](CCCN=C(N)N)C(=O)O` [NHHRRHHRCR], the MIC is > 22.7 µM in [14]; 22.7 µM (≈ 32 µg/mL) in assay [15]; 22.7 µM (≈ 32 µg/mL) in [16]; > 22.7 µM in [10]; > 22.7 µM in assay [17]; > 22.7 µM in assay [5]. In addition, the MIC in assay [18] is > 22.7 µM.
